Series [1] can be described thus: PK study, intravenous and oral administration, plasma LC-MS/MS. In kind it is in vivo. As to conditions: both sexes, 5 mg/kg, oral administration of 5 mpk, species not given (ICR mice or SD Rat); for bioavailability: read-out: bioavailability (F). Here is the method: ICR mice (male/female, total 6 animals) were assigned to two groups for oral administration and intravenous administration, respectively, with 3 mice in each group. Before administration, the animals were fasted for 10-14 hours, with water available ad lib.
SD Rat (male/female, total 6 animals) were assigned to two groups for oral administration and intravenous administration, respectively, with 3 mice in each group. Before administration, the animals were fasted for 10-14 hours, with water available ad lib.
The compounds to be tested were weighed out in accordance with intended dosage, formulated with vehicles (5% DMSO + 10% Solutol + 85% physiological saline) to dosage form at appropriate concentrations (administered intravenously and orally in rats or mice at a volume of 5 mL/kg and 10 mL/kg, respectively). The dosage form for intravenous injection is a clear solution, and the dosage form for oral administration is a clear solution or homogenous suspension.
Administration to animals was conducted through intravenous injection and oral gavage, and blood samples were collected at 0.033, 0.083, 0.25, 0.5, 1, 2, 4, 8, and 24 hours after intravenous injection, or at 0.083, 0.25, 0.5, 1, 2, 4, 6, 8, and 24 hours after oral administration. After centrifugation of whole blood samples at 4°C and 6,800g for 6 minutes, the upper layers of plasma were stored at -80°C refrigerator before analysis.
The DMSO stock solutions of the substance to be tested were diluted with methanol or acetonitrile solution to serial working solutions and added to blank plasma matrix to formulate samples for standard curve and quality control. An appropriate volume of plasma sample was added with appropriate fold of methanol or acetonitrile containing internal standards, according to response, for protein precipitation. After centrifugation of all samples at 4°C and 18,000g for 10 min, appropriate volumes of supernatant were taken for LC-MS/MS analysis.
Plasma drug concentration-time curves were plotted in accordance with tested concentrations, and pharmacokinetic parameters were calculated based on non-compartmental model using WinNonlin software, including half-life (T1/2), area under the drug concentration-time curve (AUC0-t), clearance rate (CL), steady-state distribution volume (Vss), bioavailability (F), etc.

The target of another series is T1, CYP11A1 (Homo sapiens, UniProt P05108).
T1 construct: host or cells: NCI-H295R
T1 sequence (P05108 40-521): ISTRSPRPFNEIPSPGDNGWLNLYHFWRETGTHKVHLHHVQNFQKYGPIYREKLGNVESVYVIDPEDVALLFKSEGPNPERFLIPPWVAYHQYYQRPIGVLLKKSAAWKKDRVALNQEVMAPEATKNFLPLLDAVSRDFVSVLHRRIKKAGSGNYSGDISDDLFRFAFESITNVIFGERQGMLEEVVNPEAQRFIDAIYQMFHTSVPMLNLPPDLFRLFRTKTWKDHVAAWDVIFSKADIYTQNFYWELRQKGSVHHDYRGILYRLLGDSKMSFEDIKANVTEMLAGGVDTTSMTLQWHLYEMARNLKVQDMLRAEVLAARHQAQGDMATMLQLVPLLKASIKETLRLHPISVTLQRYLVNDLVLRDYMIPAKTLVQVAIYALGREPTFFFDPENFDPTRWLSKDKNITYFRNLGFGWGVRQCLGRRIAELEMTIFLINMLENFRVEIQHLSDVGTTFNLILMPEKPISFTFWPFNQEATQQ
The series is described as follows: NCI-H295R cellular pregnenolone biosynthesis inhibition assay (ELISA method). In kind it is cell-based. The following applies: NCI-H295R cells, 3 days incubation, pregnenolone in cell supernatant by ELISA; read-out: IC50. Here is the method:
The experiment aims to test the inhibitory effect of the compounds of the present disclosure on cellular pregnenolone biosynthesis, and to assess the inhibitory effect of the compounds on CYP11A1 target based on their IC50 values.
NCI-H295R cells (MINGZHOUBIO, MZ-2138) cultured in NCI-H295R complete medium (MINGZHOUBIO, MCM-0399).
Using culture medium, NCI-H295R cells were seeded into a new 384-well cell culture plate (Greiner, 781091) at a density of 5,000 cells per well, with 45µL of cell suspension per well. The test compounds were prepared by adding 5µL of compound solution at 10× concentration to each well, to a maximum final concentration of 10µM, followed by 3× serial dilution for 10 points, with a final DMSO concentration of 0.1%, centrifuging at 1,000 rpm for 1 minute at room temperature, and then incubating in a 5% CO2 cell incubator at 37°C for 3 days.
Pregnenolone ELISA kit (Abnova, KA1912) was used for detecting the content of pregnenolone in the supernatant of cell culture. Before detection, the reagents were allowed to come back to room temperature for 1 hour. After taking out the 384-well plate, the cellular supernatant was pipetted and subjected to 5× dilution with the Assay Buffer provided in the kit. A working solution of competitive molecule and a washing solution in accordance with the instructions was prepared. 50µL of diluted cellular supernatant were pipetted into the 96-well plate provided in the ELISA kit, added with 100µL of working solution of competitive molecule per well and the plate was incubated at room temperature for 1.5 hours. After discarding the liquid, the plate was washed with 300µL of washing solution per well three times and dried. After adding 150 µL of substrate chromogenic solution per well, the plate was incubated at room temperature for 10-15 minutes. After adding 50 µL of termination solution per well, the plate was incubated at room temperature for 10-15 minutes and read for absorbance at 450nm with Envision HTS Multilabel Reader.
The wells added with 1µM ODM-208 were defined as 100% inhibition (positive control), the wells containing DMSO at a final concentration of 0.1% were defined as 0% inhibition (negative control), and inhibitory ratio = (absorbance of tested sample - average absorbance of negative control)/(average absorbance of positive control - average absorbance of negative control)*100%. The data were subjected to four-parameter fitting using GraphPad Prism to calculate the IC50 values of the compounds.
(In an ELISA, binding on a coated surface is turned into a signal by an enzyme label.)

Series [2] relates to VCaP castration-resistant prostate cancer subcutaneous transplant tumor model. The series is described as follows: In vivo pharmacodynamic study in a VCaP castration-resistant prostate cancer subcutaneous transplant tumor model. As to conditions: 30mg/kg BID oral + prednisone 0.6mg/kg QD, castrated tumor-bearing mice, 32 days. On the set-up: species or system SCID-Beige mice. Here is the method:
Animals: experimental male SCID-Beige mice, 6-8-weeks old or 18-22g, provided by Beijing Vital River Laboratory Animal Technology Co., Ltd.
Experiment procedures: all experimental animals were kept within specific-pathogen-free animal barrier facility, and allowed 3 days of adaptation before the experiment began. VCaP tumor cells were in vitro cultured as monolayer in DMEM complete medium (with 10% fetal bovine serum and 1% penicillin & streptomycin) at 37°C in air containing 5% CO2. Tumor cells were routinely passaged 2-3 times a week, and cells in exponential growth phase were collected and counted for tumor cell inoculation. 10x10^6 VCaP tumor cells were resuspended in 0.1ml PBS, thoroughly mixed with 0.1ml matrigel, and then inoculated subcutaneously on the right flank of each mouse to form a tumor. The tumor-bearing mice were allowed to develop to an average tumor volume of around 200mm^3 and underwent castration surgery. The tumor volumes of all mice were measured after one week of castration surgery. Suitable tumor-bearing mice were selected and assigned randomly into the following groups: blank control group, prednisone (0.6mg/kg, QD) group, abiraterone (33.73mg/kg, QD) + prednisone (0.6mg/kg, QD) group, ODM-208 (30mg/kg, BID) + prednisone (0.6mg/kg, QD) group, and the compound of the present disclosure (30mg/kg, BID) + prednisone (0.6mg/kg, QD) group. Animals in blank control group were orally administered with vehicles (0.5%MC+0.5%Tween80 and 0.5%CMCNa), and the animals in other groups were orally administered with corresponding compound. The experiment lasted for 32 days, and during the experiment, the animals in each group were measured for tumor volume and body weight twice a week.

In series [3] the test system is testosterone, progesterone, corticosterone. Kind of series: LC-MS detection of testosterone, progesterone and corticosterone in mouse tumors and adrenal glands. In kind it is in vivo. As to conditions: mouse tumors and adrenal glands, VCaP model. The source says:
• Mouse tumors were homogenized using PBS in a 1:5 ratio (tumor weight (g): PBS volume (mL), w/v); • Mouse adrenal glands were homogenized using PBS in a 1:10 ratio (adrenal gland weight (g): PBS volume (mL), w/v); • Standard sample: testosterone (LGC, C17322500), progesterone (MCE, HY-N0437), adrenal ketone (MCE, HY-B1618), and standard solution of test substance.
Experiment procedures: since the three markers, i.e., testosterone, progesterone, and adrenal ketone, are all endogenous substances and present in the blank matrix as well, PBS was alternatively used as matrix in the production of the standard curve.
Testosterone: multiple reaction monitoring (MRM) method was used for detecting the concentrations of testosterone in mouse tumors and adrenal glands. Mass spectrum: AB Sciex Triple Quad 6500+; liquid chromatography: Shimadzu 40A, column: Waters XBridge BEH C18 2.5 µm 2.1*50mm, testosterone ion pair: 289.4/97.2. Both tumor and adrenal tissues were treated with methanol as precipitant and tolbutamide as internal standard for sample pretreatment, with linear range in 50-50,000pg/mL.
Progesterone and corticosterone: multi-reaction detection method (MRM) was used for detecting the concentrations of progesterone and corticosterone in mouse tumors and adrenal glands. Mass spectrum: AB Sciex Triple Quad 6500+; liquid chromatography: Shimadzu 40A, column: Waters XSelect HSS T3 2.5 µm 2.1*50mm, progesterone ion pair: 315.4/97.2, adrenone ion pair: 347.4/121.3. For tumor tissues, acetonitrile was used as precipitant and propranolol diclofenac as internal standard for sample pretreatment, with linear ranges in 0.05-10 ng/mL of progesterone and 0.10-20 ng/mL of corticosterone. For adrenal tissues, methanol was used as precipitant and propranolol diclofenac as internal standard for sample pretreatment, with linear ranges in 5-2,500 ng/mL of progesterone and 5-2,500 ng/mL of corticosterone.

Structures are written as SMILES. Some results are limits rather than exact numbers.

What is called AUC is concentration integrated over time. Low readings indicate less exposure, high ones more exposure. The term Cmax denotes the highest concentration seen after dosing. Broadly, the bioavailability is dose-corrected exposure relative to a reference, in per cent. As for `Cn1c(CN2Cc3ccccc3C2)c(F)cc(C=CC2CCN(S(C)(=O)=O)CC2)c1=O` [compound 113], in series [1], the AUC is greater than 1700 ng·h/mL, the Cmax is greater than 1000 ng/mL and the bioavailability was greater than 60%. For orientation: IC50 means the concentration needed to halve the response being measured. In the case of `CS(=O)(=O)N1CCC(COc2ccc(CN3Cc4ccccc4C3)cc2Br)CC1` [compound 17], the IC50 on CYP11A1 was less than 100 nM.

Turning to `CC(c1c(F)cc(CCC2CCN(S(C)(=O)=O)CC2)c(=O)n1C)N1Cc2ccccc2C1` (stereo not drawn) [compound 102], the IC50 on CYP11A1 was less than 100 nM. Still for that read-out and setting: the figure for `CS(=O)(=O)N1CCC(CCc2ccc(CN3Cc4ccccc4C3)cc2C#N)CC1` [compound 54] is less than 100 nM; for `COc1cc(CN2Cc3ccccc3C2)ccc1CCC1CCS(=O)(=O)CC1` [compound 88] it is greater than 300 nM. As for `COc1cc(OCC2CCN(S(C)(=O)=O)CC2)c(F)cc1CN1Cc2ccccc2C1` [compound 23], the IC50 on CYP11A1 is greater than 300 nM. On the same count and under the same terms, the figure for `CS(=O)(=O)N1CCC(COc2ccc(CN3Cc4ccccc4C3)cn2)CC1` [compound 7] is greater than 300 nM.

`CS(=O)(=O)N1CCC(CCc2ccc(CN3Cc4ccccc4C3)cc2Cl)CC1` [compound 84]: the IC50 at CYP11A1 is less than 100 nM. Still for that read-out and setting: the figure for `Cc1cc(CN2Cc3ccccc3C2)ccc1OCC1CCN(S(C)(=O)=O)CC1` [compound 11] is less than 100 nM.

With `CS(=O)(=O)N1CCC(COc2coc(CN3Cc4ccccc4C3)cc2=O)CC1` [ODM-208, reference compound], in series [1], the AUC came to 1310 ng·h/mL, the Cmax was found to be 807 ng/mL and the bioavailability turned out to be 59%. The half-life in series [1] (read-out: half-life (t1/2) (converted)) is 1.8 h. In addition, the “tumor inhibition rate TGI” value in series [2] turned out to be 85%. In addition, the “secretion of testosterone, progesterone and corticosterone in tumors and adrenal glands (in words)” value in series [3] was “significantly inhibits”. For `Cc1cc(CN2Cc3ccccc3C2)cc(F)c1OCC1CCN(S(C)(=O)=O)CC1` [compound 35], at CYP11A1, the IC50 lay within 100 to 300 nM.

Consider `COc1cc(CN2Cc3ccccc3C2)ccc1CCC1CCN(C(=O)CC#N)CC1` [compound 68], for which the IC50 on CYP11A1 was less than 100 nM.

Turning to `CC(=O)N1CCN(CCc2cc(F)c(CN3Cc4ccccc4C3)n(C)c2=O)CC1` [compound 119], the IC50 on CYP11A1 fell in the range of 100 to 300 nM. As to `CCn1c(CN2Cc3ccccc3C2)c(F)cc(CCC2CCN(S(C)(=O)=O)CC2)c1=O` [compound 107], the IC50 at CYP11A1 was less than 100 nM.
